Data reported in PMC8296573, “Synthesis and Biological Evaluation of Fingolimod Derivatives as Antibacterial Agents” (ACS Omega, 2021).
Values after ≈ are worked out from the molar mass of the structure shown. Read-outs that look alike come from different tables or passages of the source.

Columns and labels:
S. aureus ATCC 12598 = test: Antibacterial activity, pre-exposure; type: cell-based, Staphylococcus aureus; conditions: for MIC / inhibition at 5 µM / inhibition at 10 µM / inhibition at 15 µM / inhibition at 25 µM: Staphylococcus aureus, ATCC12598; for MIC: pre-exposure, 18 h, read-out: MIC S. aureus ATCC 12598; for Average inhibition %, biofilms viability / Average inhibition %, planktonic cells viability / inhibition at 5 µM / inhibition at 10 µM / inhibition at 15 µM / inhibition at 25 µM: S. aureus ATCC 12598, pre-exposure, ± SD
Protocol: (§1) The antimicrobial activity was assessed in a similar way for the initial screening and the dose–response evaluation against different bacterial strains. With the exception of the post-exposure experiment, the compounds were added to the wells along with the bacteria to test the ability of compounds to prevent bacterial growth and biofilm formation (pre-exposure). The compounds were diluted in DMSO and plated directly in 96-well plates before adding the bacterial culture, and plates were incubated for 18 h under aerobic conditions at 37 °C with shaking (220 rpm). The antibacterial activity of the compounds was assessed on planktonic cells and biofilms separately using two different measurements for each: optical density (turbidity) and resazurin reduction (viability) on planktonic cells and resazurin followed by a crystal violet staining assay (total biomass) on biofilms, as described in the following sections.
(§2) The resazurin staining was performed according to the protocol previously optimized with a few modifications.[46] Briefly, the planktonic solution was first transferred into a new 96-well plate and the OD of the planktonic solution was measured using a Varioskan LUX Multimode microplate reader (Thermo Scientific, Vantaa, Finland). Then, 10 μL of a 400 μM resazurin (R7017, Sigma-Aldrich, St. Louis, MO) diluted in phosphate-buffered saline (PBS) (Thermo Fisher Scientific, MA) was added to the wells (for a final resazurin concentration of 20 μM). The plate was incubated in the dark with shaking (220 rpm) for about 3–10 min at room temperature with S. aureus and A. baumannii (until the bacteria controls turned pink) or for 20 min at 37 °C with P. aeruginosa. Fluorescence was measured at λex = 560 nm and λem = 590 nm using the top optics of the Varioskan LUX Multimode microplate reader. The planktonic plate was then discarded. The original challenge plate containing the biofilms was washed once with PBS, and 200 μL of a 20 μM resazurin solution was added to the wells. The plate was incubated in the dark at 37 °C with shaking (220 rpm) for 30 min with S. aureus, 60 min with A. baumannii, and 90 min with P. aeruginosa. Fluorescence was measured as described for the planktonic solution. The biofilms were next treated with crystal violet staining.
(§3) After removing the resazurin solution from the plate, biofilms were fixed with ethanol 100% for 15 min at room temperature. Ethanol was then removed, and the biofilms were left to air-dry completely at RT. Crystal violet, diluted to 1:100 in deionized water from the 2.3% commercial solution (HT90132, Sigma-Aldrich, St. Louis, MO), was added to the wells and, after a 5 min incubation with the dye, the biofilms were washed twice with deionized water and left to air-dry for about 10 min. The dye was solubilized in ethanol 100% for 1 h, and absorbance was measured at 595 nm using a Multiskan Sky microplate spectrophotometer (Thermo Scientific, Vantaa, Finland).

S. aureus P2 = test: Antibacterial activity, pre-exposure; type: cell-based, Staphylococcus aureus; conditions: for MIC / inhibition at 5 µM / inhibition at 10 µM / inhibition at 15 µM / inhibition at 25 µM: Staphylococcus aureus; for MIC: P2, pre-exposure, 18 h; for Average inhibition %, biofilms viability / Average inhibition %, planktonic cells viability / inhibition at 5 µM / inhibition at 10 µM / inhibition at 15 µM / inhibition at 25 µM: S. aureus P2, pre-exposure, ± SD
Protocol: as §1, §2, §3

[1] = Cytotoxicity, resazurin staining assay; type: cell-based, human; conditions: human, 24 h incubation
Protocol: The cytotoxicity of the compounds was assessed on the three different human cell lines, A549, HEp-2, and HL-60, using the redox-based resazurin staining assay. The cells were seeded in clear 96-well plates at a density of 1 × 10^4 cells per well in a volume of 200 μL per well. The adherent cells were let to attach for 24 h before changing the media and adding the compounds (final concentration of 0.25% DMSO). HL-60 were counted and added to the plates at a density of 1 × 10^4 cells per well in a volume of 200 μL directly with the compounds. Untreated cells were used as negative controls, and cells treated with 1% TritonX-100 (Sigma-Aldrich, St. Louis, MO) were used as positive controls for cytotoxicity. The cells were incubated with the compounds for 24 h.
For the resazurin assay, the media was first removed, and the adherent cells were washed once with PBS. Then, 200 μL of 20 μM resazurin was added per well and cells were incubated for two more hours before the measurement of fluorescence, as mentioned earlier. For HL-60, 10 μL of 400 μM resazurin was added directly to the wells and the cells were incubated for an additional 4 h before the measurement of fluorescence.

[2] = 5 µM, read-out: Average inhibition %, biofilms biomass
[3] = 5 µM, read-out: Average inhibition %, planktonic cells turbidity
[4] = 10 µM, read-out: Average inhibition %, biofilms biomass
[5] = 10 µM, read-out: Average inhibition %, planktonic cells turbidity
[6] = 15 µM, read-out: Average inhibition %, biofilms biomass
[7] = 15 µM, read-out: Average inhibition %, planktonic cells turbidity
[8] = 25 µM, read-out: Average inhibition %, biofilms biomass
[9] = 25 µM, read-out: Average inhibition %, planktonic cells turbidity

| SMILES | MIC (S. aureus ATCC 12598) [µM] | MIC (S. aureus P2) [µM] | Average inhibition %, biofilms viability (S. aureus ATCC 12598; 5 µM) [%] | Average inhibition %, planktonic cells viability (S. aureus ATCC 12598; 5 µM) [%] | Average inhibition %, biofilms viability (S. aureus ATCC 12598; 10 µM) [%] | Average inhibition %, planktonic cells viability (S. aureus ATCC 12598; 10 µM) [%] | Average inhibition %, biofilms viability (S. aureus ATCC 12598; 15 µM) [%] | Average inhibition %, planktonic cells viability (S. aureus ATCC 12598; 15 µM) [%] | Average inhibition %, biofilms viability (S. aureus ATCC 12598; 25 µM) [%] | Average inhibition %, planktonic cells viability (S. aureus ATCC 12598; 25 µM) [%] | inhibition at 5 µM (S. aureus ATCC 12598; [2]) [%] | inhibition at 5 µM (S. aureus ATCC 12598; [3]) [%] | inhibition at 10 µM (S. aureus ATCC 12598; [4]) [%] | inhibition at 10 µM (S. aureus ATCC 12598; [5]) [%] | inhibition at 15 µM (S. aureus ATCC 12598; [6]) [%] | inhibition at 15 µM (S. aureus ATCC 12598; [7]) [%] | inhibition at 25 µM (S. aureus ATCC 12598; [8]) [%] | inhibition at 25 µM (S. aureus ATCC 12598; [9]) [%] | Average inhibition %, biofilms viability (S. aureus P2; 5 µM) [%] | Average inhibition %, planktonic cells viability (S. aureus P2; 5 µM) [%] | also measured |
| --- | --- | --- | --- | --- | --- | --- | --- | --- | --- | --- | --- | --- | --- | --- | --- | --- | --- | --- | --- | --- | --- |
| CCCCCCCCCCc1ccc2nc(CC(N)(CO)CO)ccc2c1 [Compound 83, 2-Amino-2-[(6-decylquinolin-2-yl)methyl]propane-1,3-diol] | 10 (≈ 3.73 µg/mL) | 10 (≈ 3.73 µg/mL) |  |  |  |  |  |  |  |  |  |  |  |  |  |  |  |  |  |  |  |
| CCCCCCCCCCc1ccc2nc(CCC(N)(CO)CO)ccc2c1 [Compound 81, 2-Amino-2-[2-(6-decylquinolin-2-yl)ethyl]propane-1,3-diol] |  |  | 15.6 ± 9.7 | 4.2 ± 7.3 | 99.4 ± 0 | 99.7 ± 0 | 99.7 ± 0.1 | 99.8 ± 0.1 | 99.7 ± 0.1 | 99.6 ± 0.1 | 19.1 ± 26.4 | 2.1 ± 3.7 | 96 ± 0.6 | 99.8 ± 0.1 | 93.5 ± 1.8 | 99.7 ± 0.1 | 88.7 ± 2 | 99.3 ± 0.2 | 37.3 ± 3.3 | 42.9 ± 19.7 | Average inhibition %, biofilms viability (S. aureus P2; 10 µM): 99.6 ± 0.1%; Average inhibition %, planktonic cells viability (S. aureus P2; 10 µM): 99.6 ± 0.2%; Average inhibition %, biofilms viability (S. aureus P2; 15 µM): 99.6 ± 0%; Average inhibition %, planktonic cells viability (S. aureus P2; 15 µM): 99.6 ± 0.1%; Average inhibition %, biofilms viability (S. aureus P2; 25 µM): 99.6 ± 0%; Average inhibition %, planktonic cells viability (S. aureus P2; 25 µM): 99.6 ± 0.2%; inhibition at 5 µM (S. aureus P2; [2]): 48.4 ± 15.7%; inhibition at 5 µM (S. aureus P2; [3]): 0%; inhibition at 10 µM (S. aureus P2; [4]): 96.6 ± 0.4%; inhibition at 10 µM (S. aureus P2; [5]): 99.8 ± 0.1%; inhibition at 15 µM (S. aureus P2; [6]): 94.5 ± 0.6%; inhibition at 15 µM (S. aureus P2; [7]): 99.7 ± 0.1%; inhibition at 25 µM (S. aureus P2; [8]): 89.1 ± 0.6%; inhibition at 25 µM (S. aureus P2; [9]): 99.2 ± 0.2% |
| CCCCCCCCCCc1ccc(CCC(N)(CO)CO)nc1 [Compound 62, 2-Amino-2-[2-(5-decylpyridin-2-yl)ethyl]propane-1,3-diol] |  |  |  |  |  |  |  |  |  |  |  |  |  |  |  |  |  |  |  |  | CC50 at 24 h ([1]; A549 cells): 27.6 ± 6.4 µM; CC50 at 24 h ([1]; HEp-2 cells): 30.9 ± 6.2 µM; CC50 at 24 h ([1]; HL-60 cells): 3.6 ± 0.4 µM |
| CCCCCCCCc1ccc2nc(CCC(N)(CO)CO)ccc2c1 [Compound 80, 2-Amino-2-[2-(6-octylquinolin-2-yl)ethyl]propane-1,3-diol] | 10 (≈ 3.59 µg/mL) | 10 (≈ 3.59 µg/mL) | 24.6 ± 6.8 | 7.3 ± 12.6 | 99.2 ± 0.3 | 99.7 ± 0 | 99.5 ± 0.1 | 99.6 ± 0 | 99.5 ± 0.2 | 99.6 ± 0 | 34.3 ± 18.8 | 22.7 ± 5.4 | 96.5 ± 1 | 99.6 | 93.4 ± 1.2 | 99.5 ± 0.1 | 89.4 ± 0.6 | 98.9 ± 0.3 | 45.2 ± 2.1 | 20.6 ± 21.6 | Average inhibition %, biofilms viability (S. aureus P2; 10 µM): 99.5 ± 0.1%; Average inhibition %, planktonic cells viability (S. aureus P2; 10 µM): 99.7 ± 0.2%; Average inhibition %, biofilms viability (S. aureus P2; 15 µM): 99.5 ± 0%; Average inhibition %, planktonic cells viability (S. aureus P2; 15 µM): 99.6 ± 0.1%; Average inhibition %, biofilms viability (S. aureus P2; 25 µM): 99.5 ± 0%; Average inhibition %, planktonic cells viability (S. aureus P2; 25 µM): 99.5 ± 0.1%; inhibition at 5 µM (S. aureus P2; [2]): 57.3 ± 10.2%; inhibition at 5 µM (S. aureus P2; [3]): 3.3 ± 5.4%; inhibition at 10 µM (S. aureus P2; [4]): 95.4 ± 2.9%; inhibition at 10 µM (S. aureus P2; [5]): 99.6 ± 0.1%; inhibition at 15 µM (S. aureus P2; [6]): 95.3 ± 0.8%; inhibition at 15 µM (S. aureus P2; [7]): 99.3%; inhibition at 25 µM (S. aureus P2; [8]): 90.6 ± 1%; inhibition at 25 µM (S. aureus P2; [9]): 98.8 ± 0.2% |
| CCCCCCCCc1ccc2ccc(CC(N)(CO)CO)nc2c1 [Compound 82, 2-Amino-2-[(7-octylquinolin-2-yl)methyl]propane-1,3-diol] | 10 (≈ 3.44 µg/mL) | 10 (≈ 3.44 µg/mL) | 12.2 ± 12.8 | 13.3 ± 5 | 99.1 ± 0.2 | 99.8 ± 0 | 99.5 ± 0 | 99.7 ± 0 | 99.7 ± 0.1 | 99.6 ± 0.1 | 26.3 ± 11.6 | 20.6 ± 8.5 | 94.4 ± 1.7 | 99.6 ± 0.1 | 97.1 ± 1.1 | 99.7 | 94.6 ± 1.4 | 99.4 ± 0.2 | 23.7 ± 8.8 | 1 ± 1.8 | Average inhibition %, biofilms viability (S. aureus P2; 10 µM): 99.5 ± 0%; Average inhibition %, planktonic cells viability (S. aureus P2; 10 µM): 99.8 ± 0%; Average inhibition %, biofilms viability (S. aureus P2; 15 µM): 99.8 ± 0%; Average inhibition %, planktonic cells viability (S. aureus P2; 15 µM): 99.6 ± 0%; Average inhibition %, biofilms viability (S. aureus P2; 25 µM): 99.7 ± 0.1%; Average inhibition %, planktonic cells viability (S. aureus P2; 25 µM): 99.5 ± 0%; inhibition at 5 µM (S. aureus P2; [2]): 39.9 ± 7%; inhibition at 5 µM (S. aureus P2; [3]): 5 ± 2.2%; inhibition at 10 µM (S. aureus P2; [4]): 97.6 ± 0.4%; inhibition at 10 µM (S. aureus P2; [5]): 99.6%; inhibition at 15 µM (S. aureus P2; [6]): 97.2 ± 0.8%; inhibition at 15 µM (S. aureus P2; [7]): 99.7%; inhibition at 25 µM (S. aureus P2; [8]): 96.4 ± 0.6%; inhibition at 25 µM (S. aureus P2; [9]): 99.4 ± 0.1%; CC50 at 24 h ([1]; A549 cells): 27.5 ± 3 µM; CC50 at 24 h ([1]; HEp-2 cells): 28.8 ± 1.8 µM; CC50 at 24 h ([1]; HL-60 cells): 6.5 ± 0.8 µM |
